Drawing on PubChem BioAssay (NCI), this text covers TGI and GI50 for 21 compounds.

Holding throughout (experiment): growth of human tumour cells (NCI), 48 h
For experiment [1], the system named is RXF 393 renal.
The subject of experiment [2] is SF-539 CNS.
For experiment [3], the system named is LOX IMVI melanoma.
The test system of experiment [4] is K-562 leukemia.
Experiment [5] concerns OVCAR-5 ovarian.
Experiment [6] deals with HOP-92 NSCLC.
The subject of experiment [7] is OVCAR-8 ovarian.
For experiment [8], the system named is COLO 205 colon.
Experiment [9] deals with SF-295 CNS.

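Briefly, cells in 96-well plates were exposed to five compound concentrations for 48 h, and endpoints were estimated by linear interpolation. GI50 marks 50% less growth. TGI: total growth inhibition.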

In the case of `O=C(c1ccccc1)C1OC12C(=O)Nc1c(Cl)cc(Cl)cc12` (centres undefined), the TGI in experiment [1] is above 100 µM; in experiment [2], above 100 µM; in [3] it was above 61.7 µM; in experiment [4] it was 46.1 µM; in [5] it was above 100 µM; in experiment [6], above 93.2 µM. Moreover, the TGI in [7] was 51.1 µM; in experiment [8], 41 µM; in [9], above 100 µM.
Regarding `O=c1ncc(F)cn1C1OC(CO)C(O)C1O` (centres undefined), the TGI is above 100 µM in [1]; above 88 µM in experiment [2]; above 59.8 µM in experiment [3]; above 100 µM in experiment [4]; above 100 µM in [5]; above 100 µM in [6]. The TGI is above 100 µM in experiment [7], above 37.9 µM in experiment [8] and above 100 µM in experiment [9].
In the case of `CSc1nc(NC2OC(COC(C)=O)C(OC(C)=O)C(OC(C)=O)C2OC(C)=O)c2c(n1)OCC2=O` (centres undefined), the TGI in experiment [2], in [3], in [4], in [5], in experiment [6] and in experiment [7] was above 100 µM throughout. In addition, the TGI in [8] and in experiment [9] was above 100 µM throughout.
For `Oc1ccc2ccccc2c1N=Nc1ccsc1`, the TGI in experiment [1], in experiment [2], in experiment [3], in experiment [4], in experiment [5] and in experiment [6] was above 100 µM in each case. Further, the TGI in experiment [7], in experiment [8] and in [9] was above 100 µM each time.
Consider `CCC[CH2][Sn]1([CH2]CCC)[O]CC(CN(C)Cc2ccccc2)[O]1` (centres undefined), for which the TGI in experiment [1] stood at 23.1 µM; in experiment [2] it was 20.6 µM; in experiment [3] it was 16.2 µM; in experiment [4] it was 12.9 µM; in [5], 25.3 µM; in experiment [6], 19.7 µM. In addition, the TGI came to 24.6 µM in experiment [7], 16 µM in [8] and 22.4 µM in experiment [9]. Moreover, the GI50 in experiment [2] was 7.2 µM; in [3], 4.12 µM; in experiment [4] it was 2.76 µM; in experiment [5], 12.7 µM; in experiment [6] it was 3.94 µM; in experiment [7] it was 11.9 µM. The GI50 in experiment [8] is 5.31 µM; in [9] it was 9.13 µM.
For `CC(=O)OC[C@@H](COC(=O)/C=C/c1ccc(O)cc1)OC1OC(CO)C(O)C(O)C1O` (some centres undefined), the TGI in experiment [1], in [2], in [3], in experiment [4], in experiment [5] and in [6] was above 100 µM each time. In addition, the TGI in experiment [7], in [8] and in [9] was above 100 µM in each case.
In the case of `O=c1c(Br)cc2nc3ccccc3sc-2c1Br`, the TGI in [1] was above 100 µM; in [2] it was above 100 µM; in experiment [3], above 100 µM; in [4] it was 55.5 µM; in experiment [5], above 100 µM; in [6], above 100 µM. In addition, the results for the TGI in experiment [7], in [8] and in [9] were 41.4 µM, above 91 µM and above 100 µM, respectively.
For the compound `C/C(CC(=O)Nc1ccc(C)c(C)c1)=N\NC(N)=O`, the TGI in experiment [1], in [2], in experiment [3], in experiment [4], in experiment [5] and in experiment [6] was above 100 µM throughout. Further, the TGI in [7], in [8] and in experiment [9] was above 100 µM each time.
Consider `O=[P+](O)c1ccsc1`, for which the TGI in experiment [1], in experiment [2], in [3], in experiment [4], in [6] and in experiment [7] was above 100 µM in each case. The compound also gave a TGI in [8] above 100 µM.
As for `C/C1=C/C(=O)O[C@@H]2C[C@@H](CC[C@H](C)/C=C\C=C\CC1)O[C@@](O)([C@@H]1CSC(=O)N1)C2`, the TGI in experiment [1] was 0.752 µM; in [2] it was 0.991 µM; in experiment [3], above 3.88 µM; in experiment [4], above 10 µM; in experiment [5], above 10 µM; in [6], 0.356 µM. Further, the values for the TGI in experiment [7], in experiment [8] and in experiment [9] were above 10 µM, 0.36 µM and above 8.93 µM, respectively.
`COc1cc(C2SCC(=O)N2c2ncc(C)s2)cc(OC)c1OC` (centres undefined): the GI50 is 27.5 µM in [1]; 13.5 µM in experiment [2]; 31.2 µM in [3]; 23.5 µM in [4]; above 50 µM in experiment [5]; 35.4 µM in experiment [7]. For the same compound, the values for the GI50 in [8] and in [9] were 17.5 µM and 9.23 µM, respectively. The TGI in experiment [1] was above 50 µM; in [2], 43.9 µM; in [3], above 50 µM; in experiment [4] it was above 50 µM; in experiment [5], above 50 µM; in experiment [7], above 50 µM. Moreover, the TGI in [8] and in experiment [9] was above 50 µM in each case.
Turning to `Cc1cccc(C)c1NC(=O)C1C(=O)N(c2c(C)cccc2C)C(=O)/C1=N\N` (centres undefined), the TGI in [1], in experiment [2], in [3], in [4], in experiment [5] and in experiment [6] was above 100 µM in each case. The TGI in [7], in experiment [8] and in experiment [9] was above 100 µM throughout.
For `O=C(Nc1ccc(Cl)c(Cl)c1)Nc1c(Oc2ccc(Cl)c(Cl)c2)ccc(Cl)c1S(=O)(=O)O`, the GI50 is 1.92 µM in experiment [1]; 1.96 µM in [3]; 0.516 µM in [4]; 4.09 µM in experiment [5]; 3.7 µM in [7]; 2.39 µM in experiment [8]. The TGI in [1] was 5.64 µM; in [3], above 100 µM; in experiment [4] it was above 100 µM; in experiment [5], above 100 µM; in experiment [7], above 100 µM; in [8], above 100 µM.
`O=C(CCN1CCN(c2ccccc2)CC1)N1CCc2c([nH]c3ccccc23)C1c1cccnc1` (centres undefined): the TGI is 61 µM in experiment [1]; 35.4 µM in experiment [2]; 30.6 µM in experiment [3]; 45 µM in experiment [4]; 34.6 µM in [5]; 37.7 µM in experiment [6]. The TGI in experiment [7] came to 30.4 µM; in experiment [8] it was 26.7 µM.
Turning to `CC(C)([NH-])CO.CC(C)([NH-])CO.[Cl][Cd][Cl]`, the GI50 in experiment [2] is 18.7 µM; in experiment [4], 18.7 µM; in [5] it was 16.8 µM; in experiment [6], 19.3 µM; in experiment [7], 52.8 µM; in experiment [8], 26.1 µM. Also, the GI50 in experiment [9] was above 100 µM. Also, the TGI in experiment [2] was 33.2 µM; in [4] it was 40 µM; in experiment [5] it was 30.5 µM; in [6], 34 µM; in [7], above 100 µM; in experiment [8], 55.8 µM. This compound registered a TGI in experiment [9] above 100 µM.
Regarding `COc1ccc(-c2cc(=O)c3cc(OC)ccc3[nH]2)cc1`, the TGI in experiment [1], in experiment [3], in experiment [4], in [5], in experiment [6] and in [7] was above 100 µM each time. Besides, the TGI in experiment [8] and in experiment [9] was above 100 µM in each case.
On to `CN1C(=O)C2C3C=C4c5ccccc5N(c5ccccc5)C4(C2C1=O)[C@H]1C(=O)N(C)C(=O)[C@@H]31` (some centres undefined), for which the TGI in [3], in experiment [4], in experiment [5], in experiment [6], in [7] and in experiment [8] was above 100 µM each time. For the same compound, the TGI in experiment [9] is above 100 µM.
Take `O=C(O)CCC(N=Cc1nc(-c2ccccc2)oc1O)C(=O)O` (centres undefined): the TGI in experiment [1], in experiment [2], in experiment [4], in experiment [5], in experiment [7] and in experiment [8] was above 100 µM each time. The compound further returned a TGI in experiment [9] above 100 µM.
Consider `Cc1cccc(C(C)(C)C)c1NC(=O)CC1C(=O)Nc2ccccc2S1(=O)=O` (centres undefined), for which the TGI in experiment [1] worked out at 29 µM; in experiment [2], 10.2 µM; in experiment [3] it was 18.6 µM; in experiment [4] it was 13 µM; in [5] it was 27 µM; in experiment [6], 25.3 µM. Further, the TGI stood at 22.4 µM in [7] and 20 µM in [9].
For `Cn1cnc([N+](=O)[O-])c1Sc1nccn1-c1cccc2ccccc12`, the TGI is 90.2 µM in experiment [2]; 32.4 µM in [3]; above 100 µM in [4]; 76.1 µM in experiment [5]; 54.9 µM in experiment [6]; 58.8 µM in experiment [7]. In addition, the results for the TGI in [8] and in experiment [9] were 30.3 µM and above 100 µM, respectively.
Regarding `CC(=O)C1C(c2ccc(N(C)C)cc2)c2cc3c(cc2OC1(C)O)OCO3` (centres undefined), the TGI in experiment [1] is above 100 µM; in experiment [3], above 100 µM; in [4], 63.5 µM; in experiment [6] it was 55.4 µM; in [7], above 100 µM; in experiment [8], above 100 µM. Further, in experiment [9], the TGI is 71.2 µM.
